Data: patent publication US7354711B2, “Methods for inhibiting immunostimulatory DNA associated responses” (University of Iowa Research Foundation, priority 1997, dated 2008)

Test system: WEHI 231 cells
Assay: Inhibition of CpG-ODN 1760 protection against α-sIgM-induced inhibition of [3H] thymidine uptake
Type: cell-based, mouse
Conditions: for vs. Chloroquine, fold / Activity,-log10 (concentration (M) for half maximal inhibition of CpG-ODN effect on [3H] thymidine uptake in the presence of α-sIgM): Table 3, 9-aminoacridines; for Activity,-log10 (concentration (M) for half maximal inhibition of CpG-ODN effect on [3H] thymidine uptake in the presence of α-sIgM) / Activity: -log10 of the concentration (M) required for half maximal inhibition of CpG-ODN effect on [3H] thymidine uptake in the presence of α-sIgM: WEHI 231 cells; for Fold: activity expressed as a fraction of activity of chloroquine / Activity: -log10 of the concentration (M) required for half maximal inhibition of CpG-ODN effect on [3H] thymidine uptake in the presence of α-sIgM: Table 2, 4-aminoquinolines
Experimental: The assay of [^3H] Thymidine incorporation was carried out as follows. WEHI 231 cells (200 μL at 2×10^5/milliliter, in duplicate or triplicate) were incubated in a 96-well plate (Costar, Cambridge Mass.). Additions were made as indicated. After incubating for 16 hours, 0.5 μCi [methyl-^3H] thymidine (2 Ci/millimole, DuPont NEN, Boston Mass.) was added to each well, and the cells were incubated for another 4 hours. Cellular DNA was then captured onto glass fiber filters (Whatman 934AH) using a cell harvester (Brandel, Gaithersberg Md.). The filters were dried, placed into plastic scintillation vials with 10 milliliters of scintillation cocktail (EconoSafe, Research Products International, Mount Prospect Ill.), and counted in a liquid scintillation counter (Beckman LS-3133 T). The ^3H recovered on the filter was expressed as a fraction of the ^3H added.
Referring to experiments summarized in FIG. 1, WEHI 231 cells (ca. 2×10^5 per milliliter) were incubated for 16 hours at 37° C. with 10 μgrams/milliliter α-sIgM, 6 μgrams/milliliter ODN 1760, and the indicated concentration of the compound. After 16 hours, 0.5 μCi [^3H] thymidine was added. After 4 more hours incubation, the cellular DNA was harvested onto glass fiber filters. The dry filters were counted in a liquid scintillation counter.
Each experimental point was the mean of at least duplicate measurements.
Referring to the experiments summarized in FIG. 3, 10 μgrams/milliliter α-sIgM and the indicated concentrations of ODN 1760 and quinacrine were added simultaneously to WEHI 231 cells. Thymidine incorporation was estimated at 16 hours as described for Example 1.
Referring to the experiments summarized in FIG. 4, WEHI 231 cells were incubated with α-sIgM and ODN 1760. At times thereafter 0.1 μM quinacrine was added (data shown in the left three bars). Cells were incubated with 10 μgrams/milliliter (α-sIgM and ODN 1760 (6 μgrams/milliliter, phosphorothioate or a phosphodiester ODN with the same sequence as 1760 (PD ODN) (30 μM at time 0 hours and 8 hours; data represented in right six bars in FIG. 4). [^3H] thymidine incorporation was estimated at 16 hours.
The symbol — indicates no change. Me and Et indicate —CH3 and —CH2CH3 respectively. Aromatic substituents are in the para position except as indicated. The activity is —log10 of the concentration (M) required for half maximal inhibition of CpG-ODN effect on [^3H] thymidine uptake in the presence of α-sIgM.

Compound	vs. Chloroquine, fold [fold]	Activity,-log10 (concentration (M) for half maximal inhibition of CpG-ODN effect on [3H] thymidine uptake in the presence of α-sIgM)	Fold: activity expressed as a fraction of activity of chloroquine [fold]	Activity: -log10 of the concentration (M) required for half maximal inhibition of CpG-ODN effect on [3H] thymidine uptake in the presence of α-sIgM
CCN(CC)CCCC(Nc1c2ccc(Cl)cc2nc2ccc(OC)cc12)c1ccc(Cl)cc1 (stereo not shown) [compound 28]	1.82	7.22		
CCN(CC)CCCC(Nc1c2ccc(Cl)cc2nc2ccc(OC)cc12)c1cccc2ccccc12 (stereo not shown) [compound 29]	1.91	7.24		
CCN(CC)CCCC(Nc1c2ccc(Cl)cc2nc2ccc(OC)cc12)c1ccc(OC)cc1 (stereo not shown) [compound 30]	2.09	7.28		
CCN(CC)CCCC(C)Nc1c(C)cnc2cc(Cl)c(C)cc12 (stereo not shown) [compound 32]			2.57	7.37
CCN(CC)CCCC(CNc1ccnc2cc(Cl)ccc12)c1ccc(Cl)cc1 (stereo not shown) [compound 33]			2.95	7.43
CCN(CC)CC(CNc1ccnc2cc(Cl)ccc12)c1ccc(OC)cc1 (stereo not shown) [compound 34]			5.04	7.66
CCN(CC)CCCCNc1c(C)cnc2cc(Cl)ccc12 [compound 35]			0.81	6.87
CCN(CC)CCCC(C)Nc1ccnc2cc(C)ccc12 (stereo not shown) [compound 37]			0.03	5.50
CCN(CC)CCCC(C)Nc1c(C)c(C)nc2ccccc12 (stereo not shown) [compound 39]			0.04	5.58
CCN(CC)CCCC(C)Nc1c(C)cnc2cccc(C)c12 (stereo not shown) [compound 40]			0.23	6.32
CCN(CC)CCCC(C)Nc1c(C)cnc2cc(OC)ccc12 (stereo not shown) [compound 41]			0.28	6.64
CCN(CC)CCCC(C)Nc1ccnc2ccc(Oc3ccccc3)cc12 (stereo not shown) [compound 42]			1.48	7.13
CCN(CC)CCCC(C)Nc1ccnc2cc(Cl)c(SCc3ccccc3)cc12 (stereo not shown) [compound 43]			4.57	7.62
CCN(CC)CCCC(C)Nc1cc(-c2ccccc2)nc2cc(OC)ccc12 (stereo not shown) [compound 44]			3.63	7.52
CCN(CC)CCCC(C)Nc1c(C)cnc2cc(Cl)c(C)cc12 (stereo not shown) [compound 46]			0.21	6.28
OC1CCCC1Nc1ccnc2cc(Cl)ccc12 (stereo not shown) [compound 47]			0.02	5.25
CCN(CC)CCCC(C)Nc1cc(-c2ccccc2)nc2cc(Cl)ccc12 (stereo not shown) [compound 48]			2.14	7.29
CCN(CC)CCCC(C)Nc1ccnc2cc(Oc3ccccc3)ccc12 (stereo not shown) [compound 50]			0.74	6.83
CCN(CC)CCCC(C)Nc1ccnc2ccc(-c3ccccc3)cc12 (stereo not shown) [compound 51]			1.62	7.17
CCN(CC)CC=CC(C)Nc1ccnc2cc(Cl)ccc12 (stereo not shown) [compound 53]			0.81	6.87
